From ChEMBL document CHEMBL5316318, “Structural Modification and Pharmacological Evaluation of Substituted Quinoline-5,8-diones as Potent NSD2 Inhibitors” (J Med Chem, 2023)
Each block holds one compound with its values, some of them ahead of it.

Assays:
[1] = target: T1, Histone-lysine N-methyltransferase NSD2 (Homo sapiens, UniProt O96028); assay: Inhibition of recombinant human NSD2 (941 to 1240 residues) using SAM as substrate incubated for 3 hrs by AlphaLISA assay
T1 sequence (O96028 whole entry): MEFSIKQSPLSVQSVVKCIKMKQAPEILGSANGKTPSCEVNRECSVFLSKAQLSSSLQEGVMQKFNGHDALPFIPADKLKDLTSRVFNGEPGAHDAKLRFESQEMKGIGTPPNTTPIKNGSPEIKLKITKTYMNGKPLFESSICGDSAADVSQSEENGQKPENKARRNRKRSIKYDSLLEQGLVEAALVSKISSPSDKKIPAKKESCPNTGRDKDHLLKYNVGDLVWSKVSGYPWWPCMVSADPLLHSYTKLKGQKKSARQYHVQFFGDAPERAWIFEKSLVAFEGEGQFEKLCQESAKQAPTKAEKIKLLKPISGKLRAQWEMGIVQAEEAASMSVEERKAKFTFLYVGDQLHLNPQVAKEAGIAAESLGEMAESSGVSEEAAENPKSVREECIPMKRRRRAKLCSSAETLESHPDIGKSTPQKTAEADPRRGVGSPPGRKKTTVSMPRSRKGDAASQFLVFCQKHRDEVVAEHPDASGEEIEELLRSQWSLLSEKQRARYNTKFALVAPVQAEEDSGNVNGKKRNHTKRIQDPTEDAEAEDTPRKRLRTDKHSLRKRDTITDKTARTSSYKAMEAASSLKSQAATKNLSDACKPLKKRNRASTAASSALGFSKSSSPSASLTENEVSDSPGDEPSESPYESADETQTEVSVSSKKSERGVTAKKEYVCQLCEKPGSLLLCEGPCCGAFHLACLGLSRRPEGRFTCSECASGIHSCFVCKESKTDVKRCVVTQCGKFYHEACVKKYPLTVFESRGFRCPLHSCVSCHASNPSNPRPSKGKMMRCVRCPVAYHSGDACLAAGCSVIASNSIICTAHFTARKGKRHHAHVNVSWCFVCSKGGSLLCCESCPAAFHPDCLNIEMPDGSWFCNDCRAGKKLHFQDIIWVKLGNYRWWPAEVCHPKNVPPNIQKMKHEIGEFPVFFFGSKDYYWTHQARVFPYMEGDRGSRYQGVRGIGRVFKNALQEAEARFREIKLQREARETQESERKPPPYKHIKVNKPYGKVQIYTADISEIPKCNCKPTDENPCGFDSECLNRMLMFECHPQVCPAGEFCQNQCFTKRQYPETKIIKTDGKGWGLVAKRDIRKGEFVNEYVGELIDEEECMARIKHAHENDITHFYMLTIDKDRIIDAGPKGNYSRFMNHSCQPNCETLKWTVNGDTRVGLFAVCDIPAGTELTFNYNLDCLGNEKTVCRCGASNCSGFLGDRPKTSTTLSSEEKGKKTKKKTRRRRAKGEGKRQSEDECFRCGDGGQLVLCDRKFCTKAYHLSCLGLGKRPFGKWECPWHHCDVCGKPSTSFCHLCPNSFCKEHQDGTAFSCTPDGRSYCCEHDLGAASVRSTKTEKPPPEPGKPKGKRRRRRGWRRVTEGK

KMS-11 = assay: Antiproliferative activity against human KMS-11 cells assessed as inhibition of cell growth incubated for 6 days by CCK-8 assay; assay type: functional, cell-based; settings: KMS-11, 144 h
[2] = Apparent permeability coefficient, Papp in MDCK cells; assay type: ADME, cell-based, Canis lupus familiaris; settings: dog
[3] = target: T1, Histone-lysine N-methyltransferase NSD2; assay: Inhibition of human NSD2 SET domain-mediated H3K36 methylation using histone H3 as substrate by colorimetric analysis
[4] = target: T1, Histone-lysine N-methyltransferase NSD2; assay: Inhibition of human NSD2 SET domain (948 to 1239 residues)-mediated mono-methylation activity assessed as reduction in H3K36me1 level incubated for 1 hr
[5] = target: Histone-lysine N-methyltransferase NSD3 (Homo sapiens, UniProt Q9BZ95); assay: Inhibition of NSD3 (unknown origin)
Sequence of Histone-lysine N-methyltransferase NSD3 (Q9BZ95 whole entry): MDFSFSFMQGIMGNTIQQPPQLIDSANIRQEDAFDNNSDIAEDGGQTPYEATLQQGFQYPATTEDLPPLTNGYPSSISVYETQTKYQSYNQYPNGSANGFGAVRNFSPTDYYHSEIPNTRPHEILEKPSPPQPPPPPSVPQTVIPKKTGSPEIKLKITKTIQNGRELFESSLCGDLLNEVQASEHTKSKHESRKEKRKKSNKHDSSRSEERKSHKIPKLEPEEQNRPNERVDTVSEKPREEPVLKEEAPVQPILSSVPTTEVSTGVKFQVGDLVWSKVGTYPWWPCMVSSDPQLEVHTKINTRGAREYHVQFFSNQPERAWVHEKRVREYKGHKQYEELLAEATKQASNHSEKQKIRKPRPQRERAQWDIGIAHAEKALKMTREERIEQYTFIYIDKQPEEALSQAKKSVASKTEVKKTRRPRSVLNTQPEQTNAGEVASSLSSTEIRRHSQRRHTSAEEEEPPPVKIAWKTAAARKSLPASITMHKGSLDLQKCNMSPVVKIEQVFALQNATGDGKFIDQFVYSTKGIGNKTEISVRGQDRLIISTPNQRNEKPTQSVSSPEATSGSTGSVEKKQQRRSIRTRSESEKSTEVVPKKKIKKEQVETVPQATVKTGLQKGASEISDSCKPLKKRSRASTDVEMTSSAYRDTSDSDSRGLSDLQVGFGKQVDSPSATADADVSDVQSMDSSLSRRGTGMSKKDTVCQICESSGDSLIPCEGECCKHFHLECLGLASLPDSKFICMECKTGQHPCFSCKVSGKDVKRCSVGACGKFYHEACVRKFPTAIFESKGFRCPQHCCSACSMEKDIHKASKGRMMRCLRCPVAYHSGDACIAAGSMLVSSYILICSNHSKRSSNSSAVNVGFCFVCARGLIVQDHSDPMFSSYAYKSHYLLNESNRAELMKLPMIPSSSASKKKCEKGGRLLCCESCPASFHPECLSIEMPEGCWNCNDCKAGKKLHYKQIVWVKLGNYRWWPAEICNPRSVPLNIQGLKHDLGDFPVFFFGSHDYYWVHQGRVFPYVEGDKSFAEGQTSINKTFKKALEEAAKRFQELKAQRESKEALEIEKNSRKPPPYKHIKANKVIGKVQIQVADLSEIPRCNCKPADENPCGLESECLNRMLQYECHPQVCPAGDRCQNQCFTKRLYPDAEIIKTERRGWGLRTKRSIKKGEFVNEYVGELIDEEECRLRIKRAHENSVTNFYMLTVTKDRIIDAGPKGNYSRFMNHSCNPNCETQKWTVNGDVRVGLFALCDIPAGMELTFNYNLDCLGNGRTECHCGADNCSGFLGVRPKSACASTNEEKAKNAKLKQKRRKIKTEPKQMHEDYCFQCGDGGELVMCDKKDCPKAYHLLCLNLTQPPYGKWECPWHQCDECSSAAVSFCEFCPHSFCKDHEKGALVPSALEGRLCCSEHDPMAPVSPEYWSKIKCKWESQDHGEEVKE

[6] = AUClast in ICR mouse at 3 mg/kg, po measured for 24 hrs by LC-MS/MS analysis; assay type: ADME, organism-based; design: dose 3 mg/kg, time 24 hrs, route po; settings: in vivo
[7] = Half life in ICR mouse at 3 mg/kg, po measured for 24 hrs by LC-MS/MS analysis; assay type: ADME, organism-based; settings: in vivo
[8] = target: Histone-lysine N-methyltransferase, H3 lysine-36 specific (Homo sapiens, UniProt Q96L73); assay: Inhibition of NSD1 (unknown origin)
Sequence of Histone-lysine N-methyltransferase, H3 lysine-36 specific (Q96L73 whole entry): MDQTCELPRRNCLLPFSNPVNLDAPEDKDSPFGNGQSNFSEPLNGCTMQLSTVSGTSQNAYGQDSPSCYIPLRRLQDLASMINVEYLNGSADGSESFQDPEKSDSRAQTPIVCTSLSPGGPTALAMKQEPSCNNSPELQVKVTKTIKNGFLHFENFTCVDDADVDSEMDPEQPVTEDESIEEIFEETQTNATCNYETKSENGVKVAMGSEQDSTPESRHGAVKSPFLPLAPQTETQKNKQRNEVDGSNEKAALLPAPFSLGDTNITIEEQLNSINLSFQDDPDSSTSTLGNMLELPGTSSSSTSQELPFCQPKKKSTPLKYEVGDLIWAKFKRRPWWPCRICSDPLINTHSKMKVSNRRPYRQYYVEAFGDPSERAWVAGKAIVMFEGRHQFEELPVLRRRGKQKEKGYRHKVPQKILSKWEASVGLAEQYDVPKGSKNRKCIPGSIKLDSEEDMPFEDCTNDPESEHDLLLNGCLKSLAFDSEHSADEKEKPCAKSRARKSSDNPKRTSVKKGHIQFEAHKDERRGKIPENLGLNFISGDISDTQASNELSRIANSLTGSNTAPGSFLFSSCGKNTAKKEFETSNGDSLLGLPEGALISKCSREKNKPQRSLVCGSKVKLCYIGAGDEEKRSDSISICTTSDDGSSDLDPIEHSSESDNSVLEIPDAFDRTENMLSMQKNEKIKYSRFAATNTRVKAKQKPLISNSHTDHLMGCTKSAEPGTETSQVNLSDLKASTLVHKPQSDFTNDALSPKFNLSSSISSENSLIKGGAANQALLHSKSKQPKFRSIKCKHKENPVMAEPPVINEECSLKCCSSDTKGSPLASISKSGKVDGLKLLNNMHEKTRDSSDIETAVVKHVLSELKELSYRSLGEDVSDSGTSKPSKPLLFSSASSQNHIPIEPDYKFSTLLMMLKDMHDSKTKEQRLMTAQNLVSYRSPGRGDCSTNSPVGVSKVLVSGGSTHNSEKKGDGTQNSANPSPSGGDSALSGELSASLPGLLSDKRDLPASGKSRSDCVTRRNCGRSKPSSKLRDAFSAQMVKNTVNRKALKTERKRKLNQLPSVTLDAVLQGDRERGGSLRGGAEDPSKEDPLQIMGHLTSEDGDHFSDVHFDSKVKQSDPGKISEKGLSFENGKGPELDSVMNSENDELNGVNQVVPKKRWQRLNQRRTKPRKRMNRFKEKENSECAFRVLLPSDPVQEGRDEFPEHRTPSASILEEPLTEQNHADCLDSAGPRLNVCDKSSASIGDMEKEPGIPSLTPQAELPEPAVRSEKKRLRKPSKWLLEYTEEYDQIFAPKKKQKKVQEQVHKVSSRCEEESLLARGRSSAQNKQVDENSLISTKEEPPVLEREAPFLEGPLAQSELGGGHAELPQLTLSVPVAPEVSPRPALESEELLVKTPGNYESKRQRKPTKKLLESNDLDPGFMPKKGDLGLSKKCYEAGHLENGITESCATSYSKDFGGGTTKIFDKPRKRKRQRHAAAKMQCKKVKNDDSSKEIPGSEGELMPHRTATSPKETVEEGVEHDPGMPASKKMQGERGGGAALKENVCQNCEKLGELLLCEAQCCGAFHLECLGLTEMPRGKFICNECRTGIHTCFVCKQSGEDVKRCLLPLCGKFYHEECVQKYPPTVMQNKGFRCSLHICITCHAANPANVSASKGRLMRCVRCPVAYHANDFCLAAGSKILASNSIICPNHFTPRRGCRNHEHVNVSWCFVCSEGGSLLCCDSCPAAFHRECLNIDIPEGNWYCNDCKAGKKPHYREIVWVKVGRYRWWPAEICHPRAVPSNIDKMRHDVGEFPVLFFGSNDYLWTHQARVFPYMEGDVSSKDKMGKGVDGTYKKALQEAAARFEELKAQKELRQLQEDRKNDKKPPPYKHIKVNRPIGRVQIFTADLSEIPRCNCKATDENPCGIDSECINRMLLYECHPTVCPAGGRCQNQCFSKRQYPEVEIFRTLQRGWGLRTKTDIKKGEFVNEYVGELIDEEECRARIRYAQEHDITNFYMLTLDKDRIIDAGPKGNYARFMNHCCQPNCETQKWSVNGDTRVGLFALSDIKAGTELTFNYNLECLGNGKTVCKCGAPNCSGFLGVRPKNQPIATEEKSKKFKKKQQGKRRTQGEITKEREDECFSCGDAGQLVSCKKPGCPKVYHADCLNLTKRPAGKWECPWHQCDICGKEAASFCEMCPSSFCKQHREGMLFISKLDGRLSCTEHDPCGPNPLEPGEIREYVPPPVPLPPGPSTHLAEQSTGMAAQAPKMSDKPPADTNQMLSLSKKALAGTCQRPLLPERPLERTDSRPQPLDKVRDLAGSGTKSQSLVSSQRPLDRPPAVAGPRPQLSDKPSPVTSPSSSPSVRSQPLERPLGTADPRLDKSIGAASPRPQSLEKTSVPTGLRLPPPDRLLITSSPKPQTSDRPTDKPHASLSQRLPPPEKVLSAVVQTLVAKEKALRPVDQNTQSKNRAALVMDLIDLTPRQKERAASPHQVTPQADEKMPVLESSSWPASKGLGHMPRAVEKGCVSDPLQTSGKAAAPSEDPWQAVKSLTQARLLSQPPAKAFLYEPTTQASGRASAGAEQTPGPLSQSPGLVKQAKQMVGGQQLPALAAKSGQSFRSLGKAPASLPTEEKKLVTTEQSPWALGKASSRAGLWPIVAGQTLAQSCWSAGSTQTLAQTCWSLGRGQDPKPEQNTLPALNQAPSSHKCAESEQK

[9] = Cmax in ICR mouse at 3 mg/kg, po measured for 24 hrs by LC-MS/MS analysis; assay type: ADME, organism-based; design: dose 3 mg/kg, time 24 hrs, route po; settings: in vivo
[10] = Tmax in ICR mouse at 3 mg/kg, po measured for 24 hrs by LC-MS/MS analysis; assay type: ADME, organism-based; settings: in vivo
[11] = target: T1, Histone-lysine N-methyltransferase NSD2; assay: Inhibition of N-terminal polyhistidine tagged human recombinant NSD2 SET domain (934 to 1241 residues) expressed in Escherichia coli using SAM as substrate preincubated for 30 mins followed by substrate addition and measured after 15 mins by MTase-Glo assay
[12] = target: T1, Histone-lysine N-methyltransferase NSD2; assay: Competitive inhibition of NSD2 (unknown origin) using SAM as substrate
[13] = target: T1, Histone-lysine N-methyltransferase NSD2; assay: Inhibition of human MMSET (973 to 1203 residues) expressed in Escherichia coli BL21 (DE3) using S-adenosyl-methionine as substrate incubated for 60 mins by AlphaScreen assay

IC50 [1]: 1350 nM
Compound: CC(F)(F)C(=O)NCCC1CCN(C2=C(Cl)C(=O)c3ncccc3C2=O)CC1

IC50 [1]: 2480 nM
Compound: CC#CC(=O)N1CCC2(CC1)CN(C1=C(Cl)C(=O)c3ncccc3C1=O)C2

IC50 [1]: 470 nM
Compound: CC(F)(F)C(=O)NC1CN(C2=C(Cl)C(=O)c3cccnc3C2=O)C1

IC50 [1]: 380 nM
Compound: CC(F)(F)C(=O)NCCC1CN(C2=C(Cl)C(=O)c3cccnc3C2=O)C1

IC50 [1]: 490 nM
Compound: CC#CC(=O)NCCC1CCN(C2=C(Cl)C(=O)c3ncccc3C2=O)CC1

IC50 [1]: 450 nM
Compound: O=C1C(Cl)=C(NCCc2c[nH]c3ccccc23)C(=O)c2ncccc21

Papp [2]: 44.4 ×10⁻⁶ cm/s
IC50 [1]: 300 nM
Compound: CC(F)(F)C(=O)NC12CC(NC3=C(Cl)C(=O)c4cccnc4C3=O)(C1)C2
IC50 (KMS-11): 2400 nM

IC50 [1]: 1460 nM
Compound: O=C1C(NC23CC(NC(=O)C4CC4(F)F)(C2)C3)=C(Cl)C(=O)c2ncccc21 (configuration not stated)

IC50 [3]: 132000 nM
Compound: O=C1O[C@@H](C(=O)N2CCN(Cc3nc4sc5c(c4c(=O)[nH]3)CCCC5)CC2)Cc2ccccc21

IC50 [4]: 41000 nM
Compound: COc1cc2nc(N3CCCN(C)CC3)nc(NC3CCN(Cc4ccccc4)CC3)c2cc1OC

IC50 [5]: 340 nM
AUC(0-t) at 24 h [6]: 14.5 ng·h/mL
Papp [2]: 31.2 ×10⁻⁶ cm/s
half-life [7]: 34.2 min
IC50 [8]: 150 nM
Cmax [9]: 21.1 ng/mL
Tmax [10]: 19.8 min
IC50 [11]: 170 nM
IC50 [1]: 230 nM
Compound: O=C1C(Cl)=C(NCCN2CCOCC2)C(=O)c2ncccc21
IC50 (KMS-11): 1430 nM

IC50 [1]: 1280 nM
Compound: O=C1C(NCCC2(O)CCN(C(=O)C3CC3(F)F)CC2)=C(Cl)C(=O)c2ncccc21 (configuration not stated)

IC50 [1]: 590 nM
Compound: CC#CC(=O)NC1CN(C2=C(Cl)C(=O)c3ncccc3C2=O)C1

IC50 [1]: 380 nM
Compound: CC(F)(F)C(=O)NCCC1CN(C2=C(Cl)C(=O)c3ncccc3C2=O)C1

Papp [2]: 17.8 ×10⁻⁶ cm/s
IC50 [1]: 240 nM
Compound: C[C@@](O)(C(=O)N1CCC(O)(CCNC2=C(Cl)C(=O)c3cccnc3C2=O)CC1)C(F)(F)F
IC50 (KMS-11): 8100 nM

IC50 [12]: < 3000 nM
Compound: NNc1nc2ccccc2nc1S

IC50 [1]: 930 nM
Compound: CC(C)(O)[C@H](F)CNC1=C(Cl)C(=O)c2ccc(N3CCC(F)(F)C3)nc2C1=O

Compound: CCN(c1cc(-c2ccc(CN3CCOCC3)cc2)cc(C(=O)NCc2c(C)cc(C)[nH]c2=O)c1C)C1CCOCC1 [TAZEMETOSTAT]
IC50 (KMS-11): > 20000 nM

IC50 [1]: 1220 nM
Compound: CC(C)(O)[C@H](F)CNC1=C(Cl)C(=O)c2ccc(N3C[C@@H](O)[C@H](O)C3)nc2C1=O

Papp [2]: 29 ×10⁻⁶ cm/s
IC50 [1]: 250 nM
Compound: CC(C)(O)[C@H](F)CNC1=C(Cl)C(=O)c2ccc(Cl)nc2C1=O
IC50 (KMS-11): 6070 nM

IC50 [1]: 2340 nM
Compound: CC(F)(F)C(=O)NCCC1CCN(C2=C(Cl)C(=O)c3cccnc3C2=O)CC1

IC50 [13]: 3300 nM
Compound: CCCN[C@@H](CC[C@H](N)C(=O)O)C[C@H]1O[C@@H](n2cnc3c(N)ncnc32)[C@H](O)[C@@H]1O
